Results from PubChem BioAssay AID1259407 (Chemical Carcinogenesis Research Information System (CCRIS), 2018).
Calls of active or inactive are those of the source. The rule behind the calls is not given here.

Test system: CCRIS mutagenicity, Ames/micronucleus/aberration tests
Test: CCRIS mutagenicity studies
[1] = Test System: AMES SALMONELLA TYPHIMURIUM, Strain/Indicator: TA98, Metabolic Activation: NONE, Method: PREINCUBATION
[2] = Test System: AMES SALMONELLA TYPHIMURIUM, Strain/Indicator: TA100, Metabolic Activation: NONE, Method: PREINCUBATION
[3] = Test System: AMES SALMONELLA TYPHIMURIUM, Strain/Indicator: TA98, Metabolic Activation: NONE, Method: STANDARD PLATE
[4] = Test System: AMES SALMONELLA TYPHIMURIUM, Strain/Indicator: TA100, Metabolic Activation: NONE, Method: STANDARD PLATE

Q: `NC(N)=NC(=O)c1nc(Cl)c(N)nc1N` was tested. Which mutagenic call (Test System: AMES SALMONELLA TYPHIMURIUM, Strain/Indicator: TA97, Metabolic Activation: HAMSTER, LIVER, S-9, AROCLOR 1254 (5, 10 OR 30%), Method: PREINCUBATION) did it give?
A: Its mutagenic call is “inactive; negative”.

Q: And the mutagenic call (Test System: AMES SALMONELLA TYPHIMURIUM, Strain/Indicator: TA97, Metabolic Activation: NONE, Method: PREINCUBATION)?
A: The mutagenic call was “inactive; negative”.

Q: What about the mutagenic call (Test System: AMES SALMONELLA TYPHIMURIUM, Strain/Indicator: TA97, Metabolic Activation: RAT, LIVER, S-9, AROCLOR 1254 (5, 10 OR 30%), Method: PREINCUBATION) of the same molecule?
A: Its mutagenic call is “inactive; negative”.

Q: And the mutagenic call (Test System: AMES SALMONELLA TYPHIMURIUM, Strain/Indicator: TA98, Metabolic Activation: HAMSTER, LIVER, S-9, AROCLOR 1254 (30%), Method: PREINCUBATION)?
A: The mutagenic call was “inactive; negative”.

Q: And the mutagenic call [1]?
A: Its mutagenic call is “inactive; negative”.

Q: And the mutagenic call (Test System: AMES SALMONELLA TYPHIMURIUM, Strain/Indicator: TA98, Metabolic Activation: RAT, LIVER, S-9, AROCLOR 1254 (30%), Method: PREINCUBATION)?
A: The mutagenic call was “inactive; negative”.

Q: And the mutagenic call (Test System: AMES SALMONELLA TYPHIMURIUM, Strain/Indicator: TA100, Metabolic Activation: HAMSTER, LIVER, S-9, AROCLOR 1254 (30%), Method: PREINCUBATION)?
A: Its mutagenic call is “inactive; negative”.

Q: What about the mutagenic call [2] of the same molecule?
A: Its mutagenic call is “inactive; negative”.

Q: What about the mutagenic call (Test System: AMES SALMONELLA TYPHIMURIUM, Strain/Indicator: TA100, Metabolic Activation: RAT, LIVER, S-9, AROCLOR 1254 (30%), Method: PREINCUBATION) of the same molecule?
A: The mutagenic call was “inactive; negative”.

Q: What about the mutagenic call (Test System: AMES SALMONELLA TYPHIMURIUM, Strain/Indicator: TA1535, Metabolic Activation: HAMSTER, LIVER, S-9, AROCLOR 1254 (30%), Method: PREINCUBATION) of the same molecule?
A: The mutagenic call was “inactive; negative”.

Q: And the mutagenic call (Test System: AMES SALMONELLA TYPHIMURIUM, Strain/Indicator: TA1535, Metabolic Activation: NONE, Method: PREINCUBATION)?
A: Its mutagenic call is “inactive; negative”.

Q: And the mutagenic call (Test System: AMES SALMONELLA TYPHIMURIUM, Strain/Indicator: TA1535, Metabolic Activation: RAT, LIVER, S-9, AROCLOR 1254 (30%), Method: PREINCUBATION)?
A: The mutagenic call was “inactive; negative”.

Q: And the mutagenic call (Test System: AMES SALMONELLA TYPHIMURIUM, Strain/Indicator: TA1537, Metabolic Activation: HAMSTER, LIVER, S-9, AROCLOR 1254 (30%), Method: PREINCUBATION)?
A: The mutagenic call was “active; positive”.

Q: And the mutagenic call (Test System: AMES SALMONELLA TYPHIMURIUM, Strain/Indicator: TA1537, Metabolic Activation: NONE, Method: PREINCUBATION)?
A: Its mutagenic call is “active; positive”.

Q: What about the mutagenic call (Test System: AMES SALMONELLA TYPHIMURIUM, Strain/Indicator: TA1537, Metabolic Activation: RAT, LIVER, S-9, AROCLOR 1254 (30%), Method: PREINCUBATION) of the same molecule?
A: The mutagenic call was “active; positive”.

Q: Which results are given for `O=[N+]([O-])c1ccc2c(c1)oc1ccccc12`?
A: mutagenic call (Test System: AMES SALMONELLA TYPHIMURIUM, Strain/Indicator: TA98(1,8-DNP6), Metabolic Activation: NONE, Method: PREINCUBATION): active; positive; mutagenic call (Test System: AMES SALMONELLA TYPHIMURIUM, Strain/Indicator: TA98(1,8-DNP6), Metabolic Activation: NONE, Method: SUSPENSION): active; positive; mutagenic call (Test System: AMES SALMONELLA TYPHIMURIUM, Strain/Indicator: TA98(1,8-DNP6), Metabolic Activation: RAT, LIVER, S-9, PCB (5%), Method: PREINCUBATION): active; positive; mutagenic call (Test System: AMES SALMONELLA TYPHIMURIUM, Strain/Indicator: TA98(NR), Metabolic Activation: NONE, Method: PREINCUBATION): active; positive; mutagenic call (Test System: AMES SALMONELLA TYPHIMURIUM, Strain/Indicator: TA98(NR), Metabolic Activation: NONE, Method: SUSPENSION): active; positive; mutagenic call (Test System: AMES SALMONELLA TYPHIMURIUM, Strain/Indicator: TA98(NR), Metabolic Activation: RAT, LIVER, S-9 (10%), Method: PREINCUBATION): active; positive; mutagenic call (Test System: AMES SALMONELLA TYPHIMURIUM, Strain/Indicator: TA98(NR), Metabolic Activation: RAT, LIVER, S-9, 3-METHYLCHOLANTHRENE (10%), Method: PREINCUBATION): active; positive; mutagenic call (Test System: AMES SALMONELLA TYPHIMURIUM, Strain/Indicator: TA98(NR), Metabolic Activation: RAT, LIVER, S-9, BETA-NAPHTHOFLAVONE (10%), Method: PREINCUBATION): active; positive; mutagenic call (Test System: AMES SALMONELLA TYPHIMURIUM, Strain/Indicator: TA98(NR), Metabolic Activation: RAT, LIVER, S-9, PCB (5%), Method: PREINCUBATION): active; positive; mutagenic call (Test System: AMES SALMONELLA TYPHIMURIUM, Strain/Indicator: TA98(NR), Metabolic Activation: RAT, LIVER, S-9, PCB (10%), Method: PREINCUBATION): active; positive; mutagenic call (Test System: AMES SALMONELLA TYPHIMURIUM, Strain/Indicator: TA98(NR), Metabolic Activation: RAT, LIVER, S-9, PHENOBARBITAL (10%), Method: PREINCUBATION): active; positive; mutagenic call [1]: active; positive; mutagenic call [3]: active; positive; mutagenic call (Test System: AMES SALMONELLA TYPHIMURIUM, Strain/Indicator: TA98, Metabolic Activation: NONE, Method: SUSPENSION): active; positive; mutagenic call (Test System: AMES SALMONELLA TYPHIMURIUM, Strain/Indicator: TA98, Metabolic Activation: RAT, LIVER, S-9, PCB (5%), Method: PREINCUBATION): active; positive; mutagenic call (Test System: AMES SALMONELLA TYPHIMURIUM, Strain/Indicator: TA98, Metabolic Activation: RAT, LIVER, S-9, PCB, Method: SUSPENSION): active; positive; mutagenic call (Test System: AMES SALMONELLA TYPHIMURIUM, Strain/Indicator: TA98, Metabolic Activation: S-9, PHENOBARBITAL AND 5,6-BENZOFLAVONE, Method: STANDARD PLATE): active; positive; mutagenic call [2]: inactive; negative; mutagenic call [4]: active; positive; mutagenic call (Test System: AMES SALMONELLA TYPHIMURIUM, Strain/Indicator: TA100, Metabolic Activation: NONE, Method: SUSPENSION): active; positive; mutagenic call (Test System: AMES SALMONELLA TYPHIMURIUM, Strain/Indicator: TA100, Metabolic Activation: RAT, LIVER, S-9, PCB (5%), Method: PREINCUBATION): inactive; negative; mutagenic call (Test System: AMES SALMONELLA TYPHIMURIUM, Strain/Indicator: TA100, Metabolic Activation: RAT, LIVER, S-9, PCB, Method: SUSPENSION): inactive; negative; mutagenic call (Test System: AMES SALMONELLA TYPHIMURIUM, Strain/Indicator: TA100, Metabolic Activation: S-9, PHENOBARBITAL AND 5,6-BENZOFLAVONE, Method: STANDARD PLATE): active; positive

Q: For `Nc1cccc2c(Cl)nsc12`, which mutagenic call (Test System: AMES SALMONELLA TYPHIMURIUM, Strain/Indicator: TA100, Metabolic Activation: S-9, Method: STANDARD PLATE) is on record?
A: The mutagenic call was “active; positive”.

Q: With `C[C@]1(O)CC[C@H]2[C@@H]3CCC4=CC(=O)CC[C@]4(C)[C@@]3(F)[C@@H](O)C[C@@]21C` as the molecule, how does the mutagenic call (End Point: IN VITRO CHROMOSOMAL ABERRATIONS, Test System: HUMAN PERIPHERAL LYMPHOCYTES, Metabolic Activation: NONE) read?
A: Its mutagenic call is “active; positive after 72 hr treatment at 2 lower doses; positive after 48 or 72 hr trea”.

Q: What about the mutagenic call (End Point: IN VIVO MICRONUCLEUS, Test System: BONE MARROW POLYCHROMATIC ERYTHROCYTES, Species: MOUSE, Strain/Sex: SWISS ALBINO/MALE, Route: IP) of the same molecule?
A: The mutagenic call was “active; positive”.

Q: What about the mutagenic call (Test System: AMES SALMONELLA TYPHIMURIUM, Strain/Indicator: TA97A, Metabolic Activation: NONE, Method: STANDARD PLATE) of the same molecule?
A: The mutagenic call was “inactive; negative; growth inhibition at highest dose”.

Q: And the mutagenic call (Test System: AMES SALMONELLA TYPHIMURIUM, Strain/Indicator: TA97A, Metabolic Activation: RAT, LIVER, S-9, PHENOBARBITAL, Method: PREINCUBATION)?
A: The mutagenic call was “inactive; negative”.

Q: And the mutagenic call [3]?
A: The mutagenic call was “inactive; negative; growth inhibition at highest dose”.

Q: What about the mutagenic call (Test System: AMES SALMONELLA TYPHIMURIUM, Strain/Indicator: TA98, Metabolic Activation: RAT, LIVER, S-9, PHENOBARBITAL, Method: PREINCUBATION) of the same molecule?
A: Its mutagenic call is “inactive; negative”.

Q: And the mutagenic call [4]?
A: The mutagenic call was “inactive; negative; growth inhibition at highest dose”.

Q: And the mutagenic call (Test System: AMES SALMONELLA TYPHIMURIUM, Strain/Indicator: TA100, Metabolic Activation: RAT, LIVER, S-9, PHENOBARBITAL, Method: PREINCUBATION)?
A: The mutagenic call was “inactive; negative”.

Q: And the mutagenic call (Test System: AMES SALMONELLA TYPHIMURIUM, Strain/Indicator: TA102, Metabolic Activation: NONE, Method: STANDARD PLATE)?
A: Its mutagenic call is “inactive; negative; growth inhibition at highest dose”.

Q: What about the mutagenic call (Test System: AMES SALMONELLA TYPHIMURIUM, Strain/Indicator: TA102, Metabolic Activation: RAT, LIVER, S-9, PHENOBARBITAL, Method: PREINCUBATION) of the same molecule?
A: Its mutagenic call is “inactive; negative”.

Q: And the mutagenic call (Test System: AMES SALMONELLA TYPHIMURIUM, Strain/Indicator: TA1535, Metabolic Activation: NONE, Method: STANDARD PLATE)?
A: Its mutagenic call is “inactive; negative; growth inhibition at highest dose”.

Q: And the mutagenic call (Test System: AMES SALMONELLA TYPHIMURIUM, Strain/Indicator: TA1535, Metabolic Activation: RAT, LIVER, S-9, PHENOBARBITAL, Method: PREINCUBATION)?
A: The mutagenic call was “inactive; negative”.

Q: For `CCCCCOC(=O)NO`, which mutagenic call (Test System: E. COLI, Strain/Indicator: WP2 UVRA, Metabolic Activation: NONE, Method: FLUCTUATION TEST) is on record?
A: The mutagenic call was “active; positive”.
